The target of test [1] is T1, GLS1 (purified recombinant human GAC) (Homo sapiens, UniProt O94925).
T1 sequence (O94925 55-598 isoform O94925-3 limits assumed): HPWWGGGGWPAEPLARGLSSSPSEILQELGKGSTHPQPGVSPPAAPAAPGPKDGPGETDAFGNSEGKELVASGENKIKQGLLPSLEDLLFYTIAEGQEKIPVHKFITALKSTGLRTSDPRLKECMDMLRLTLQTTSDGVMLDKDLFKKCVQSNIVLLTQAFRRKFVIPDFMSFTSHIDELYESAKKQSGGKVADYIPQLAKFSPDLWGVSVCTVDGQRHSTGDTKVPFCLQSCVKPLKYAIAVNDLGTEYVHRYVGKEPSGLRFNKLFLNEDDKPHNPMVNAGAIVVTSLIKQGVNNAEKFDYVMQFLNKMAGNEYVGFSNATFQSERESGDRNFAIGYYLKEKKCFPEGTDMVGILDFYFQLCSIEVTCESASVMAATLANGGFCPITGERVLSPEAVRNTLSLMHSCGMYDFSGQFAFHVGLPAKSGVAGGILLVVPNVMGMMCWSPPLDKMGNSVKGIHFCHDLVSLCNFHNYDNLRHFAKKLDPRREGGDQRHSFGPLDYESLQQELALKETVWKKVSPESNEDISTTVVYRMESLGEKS
The test is described as follows: GLS1 enzymatic activity assay (dual-coupled, Amplex UltraRed/resorufin). It counts as biochemical. In short, it runs like this: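 GAC activity measured by coupling glutamate to glutamate oxidase and HRP, generating resorufin from Amplex UltraRed. Enzyme (2 nM) preincubated with 50 mM potassium phosphate 10 min at room temperature, then inhibitor 10 min; 1 mM glutamine substrate, 1% DMSO. Fluorescence 530/590 nm, kinetic or 20-min endpoint; IC50 from four-parameter logistic fit.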

In test [2] the test system is A549 cells. Put plainly: A549 proliferation (viability) assay, Cell Titer Fluor, 72 hours. The class given is cell-based. As to conditions: Homo sapiens. In short, it runs like this:
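A549 cells seeded at 1000 cells/well, left 24 h, then exposed to compound for 72 h at 37 °C, 5% CO2, final DMSO 0.5% (v/v). Viability read by Cell Titer Fluor fluorescence; EC50 from four-parameter logistic fit.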

21 compounds from patent US20160002204A1 (Board of Regents, The University of Texas System, priority 2014, published 2016) can be followed below.

Bounds are passed on as bounds.

The IC50 is the midpoint of a concentration-inhibition curve. For orientation: EC50 means the concentration giving half of the maximal effect. A high value points to a less potent agent. For `O=C(Cc1ccccc1)Nc1ccn(CCC(F)Cn2cc(C(=O)NCc3cc(Cl)ccc3F)nn2)c(=O)c1F` (stereo not drawn) [Example 392, N-[(5-chloro-2-fluorophenyl)methyl]-1-{2-fluoro-4-[3-fluoro-2-oxo-4-(2-phenylacetamido)-1,2-dihydropyridin-1-yl]butyl}-1H-1,2,3-triazole-4-carboxamide], in test [1], the IC50 is < 100 nM. The EC50 in test [2] is < 100 nM.
For the compound `O=C(Cc1cccc(OC(F)(F)F)c1)Nc1ccc(CCCCn2ccc(NC(=O)NCc3ccccc3)nc2=O)nn1` [Example 23, N-(6-(4-(4-(3-benzylureido)-2-oxopyrimidin-1(2H)-yl)butyl)pyridazin-3-yl)-2-(3-(trifluoromethoxy)phenyl)acetamide], the IC50 in test [1] was < 100 nM. Besides, in test [2], the EC50 was 500 to 5000 nM.
Turning to `O=C(Nc1ccn(CCC(F)Cn2cc(C(=O)NCc3cccc(OC(F)(F)F)c3)nn2)c(=O)c1F)C(=O)N1CCCC(O)C1` (stereo not drawn) [Example 426, 1-(2-fluoro-4-{3-fluoro-4-[2-(3-hydroxypiperidin-1-yl)-2-oxoacetamido]-2-oxo-1,2-dihydropyridin-1-yl}butyl)-N-{[3-(trifluoromethoxy)phenyl]methyl}-1H-1,2,3-triazole-4-carboxamide], the IC50 in test [1] was < 100 nM. The compound also had an EC50 in test [2] of 500 to 5000 nM.
Turning to `CNC(=O)c1cn(CCCCn2ccc(NC(=O)Cc3ccccc3)cc2=O)nn1` [Example 32, N-methyl-1-{4-[2-oxo-4-(2-phenylacetamido)-1,2-dihydropyridin-1-yl]butyl}-1H-1,2,3-triazole-4-carboxamide], the IC50 in test [1] fell in the range of 500 to 5000 nM. In addition, in test [2], the EC50 is > 5000 nM.
As for `O=C(Cc1ccccc1)Nc1ccn(CCCCc2nnc(C(=O)NCc3cc(OC(F)(F)F)ccc3F)s2)c(=O)c1` [Example 458, N-{[2-fluoro-5-(trifluoromethoxy)phenyl]methyl}-5-{4-[2-oxo-4-(2-phenylacetamido)-1,2-dihydropyridin-1-yl]butyl}-1,3,4-thiadiazole-2-carboxamide], the IC50 in test [1] was < 100 nM. For the same compound, the EC50 in test [2] is < 100 nM.
Consider `O=C(CC1CCCCC1)Nc1ccn(CCC(F)Cn2cc(C(=O)NCc3cc(C(F)(F)F)ccn3)nn2)c(=O)c1F` (stereo not drawn) [Example 258, 1-{4-[4-(2-cyclohexylacetamido)-3-fluoro-2-oxo-1,2-dihydropyridin-1-yl]-2-fluorobutyl}-N-{[4-(trifluoromethyl)pyridin-2-yl]methyl}-1H-1,2,3-triazole-4-carboxamide], for which, in test [1], the IC50 is < 100 nM. Besides, the EC50 in test [2] was < 100 nM.
For `O=C(CC1CCCCC1)Nc1ccn(CCCCn2cc(C(=O)NCc3cc(C(F)(F)F)ccn3)nn2)c(=O)c1` [Example 194, 1-{4-[4-(2-cyclohexylacetamido)-2-oxo-1,2-dihydropyridin-1-yl]butyl}-N-{[4-(trifluoromethyl)pyridin-2-yl]methyl}-1H-1,2,3-triazole-4-carboxamide], in test [1], the IC50 was < 100 nM. Also, the EC50 in test [2] was < 100 nM.
With `O=C(CN1CCCCC1)Nc1ccn(CCC(F)Cn2cc(C(=O)NCc3cccc(C(F)(F)F)n3)nn2)c(=O)c1F` (stereo not drawn) [Example 338, 1-(2-fluoro-4-{3-fluoro-2-oxo-4-[2-(piperidin-1-yl)acetamido]-1,2-dihydropyridin-1-yl}butyl)-N-{[6-(trifluoromethyl)pyridin-2-yl]methyl}-1H-1,2,3-triazole-4-carboxamide], in test [1], the IC50 is 100 to 500 nM. For the same compound, the EC50 in test [2] was 100 to 500 nM.
As to `O=C(Cc1cccc(OC(F)(F)F)c1)Nc1ccn(CCCCc2nnc(C(=O)NCc3ncccc3F)s2)c(=O)c1` [Example 454, N-[(3-fluoropyridin-2-yl)methyl]-5-[4-(2-oxo-4-{2-[3-(trifluoromethoxy)phenyl]acetamido}-1,2-dihydropyridin-1-yl)butyl]-1,3,4-thiadiazole-2-carboxamide], the IC50 in test [1] was < 100 nM. Also, the half-maximal effective concentration (EC50) in test [2] was 100 to 500 nM.
For `COCCNC(=O)c1nnc(CCCCn2ccc(NC(=O)OCc3ccccc3)nc2=O)s1` [Example 121, benzyl N-[1-(4-{5-[(2-methoxyethyl)carbamoyl]-1,3,4-thiadiazol-2-yl}butyl)-2-oxo-1,2-dihydropyrimidin-4-yl]carbamate] the same measures were 500 to 5000 nM and > 5000 nM.
Turning to `O=C(CC1CCC1)Nc1ccn(CCC(F)Cn2cc(C(=O)NCc3cccc(OC(F)(F)F)c3)nn2)c(=O)c1F` (stereo not drawn) [Example 339, 1-{4-[4-(2-cyclobutylacetamido)-3-fluoro-2-oxo-1,2-dihydropyridin-1-yl]-2-fluorobutyl}-N-{[3-(trifluoromethoxy)phenyl]methyl}-1H-1,2,3-triazole-4-carboxamide], in test [1], the IC50 was < 100 nM. Besides, the EC50 in test [2] is < 100 nM.
Take `COCCNC(=O)c1nnc(CCCCn2ccc(NC(=O)CC3CCCCC3)cc2=O)s1` [Example 451, 5-{4-[4-(2-cyclohexylacetamido)-2-oxo-1,2-dihydropyridin-1-yl]butyl)-N-(2-methoxyethyl)-1,3,4-thiadiazole-2-carboxamide]: the IC50 in test [1] is < 100 nM. The compound further returned an EC50 in test [2] of 100 to 500 nM.
Turning to `Cc1ccc(CNC(=O)c2cn(CCCCn3ccc(NC(=O)C4CCCC4)cc3=O)nn2)cn1` [Example 159, 1-[4-(4-cyclopentaneamido-2-oxo-1,2-dihydropyridin-1-yl)butyl]-N-[(6-methylpyridin-3-yl)methyl]-1H-1,2,3-triazole-4-carboxamide], the IC50 in test [1] fell in the range of 100 to 500 nM. The same compound showed an EC50 in test [2] of 500 to 5000 nM.
Consider `O=C(CN1CCCCC1)Nc1ccn(CCC(F)Cn2cc(C(=O)NCc3cncc(C(F)(F)F)c3)nn2)c(=O)c1F` (stereo not drawn) [Example 351, 1-(2-fluoro-4-{3-fluoro-2-oxo-4-[2-(piperidin-1-yl)acetamido]-1,2-dihydropyridin-1-yl}butyl)-N-{[5-(trifluoromethyl)pyridin-3-yl]methyl}-1H-1,2,3-triazole-4-carboxamide], for which the IC50 in test [1] is < 100 nM. In test [2], the EC50 was < 100 nM.
In the case of `O=C(CC1CCCC1)Nc1ccn(CCC(F)Cn2cc(C(=O)NCc3ccc(OC(F)(F)F)cn3)nn2)c(=O)c1F` (stereo not drawn) [Example 400, 1-{4-[4-(2-cyclopentylacetamido)-3-fluoro-2-oxo-1,2-dihydropyridin-1-yl]-2-fluorobutyl}-N-{[5-(trifluoromethoxy)pyridin-2-yl]methyl}-1H-1,2,3-triazole-4-carboxamide], the IC50 in test [1] was < 100 nM. In addition, the EC50 in test [2] is < 100 nM.
With `O=C(CN1CCCCC1)Nc1ccn(CCC(F)Cn2cc(C(=O)NCc3cc(C(F)(F)F)ccn3)nn2)c(=O)c1F` (stereo not drawn) [Example 344, 1-(2-fluoro-4-{3-fluoro-2-oxo-4-[2-(piperidin-1-yl)acetamido]-1,2-dihydropyridin-1-yl}butyl)-N-{[4-(trifluoromethyl)pyridin-2-yl]methyl}-1H-1,2,3-triazole-4-carboxamide], the IC50 in test [1] fell in the range of 100 to 500 nM. Besides, the EC50 in test [2] is < 100 nM.
Take `O=C(CN1CCS(=O)(=O)CC1)Nc1ccn(CCC(F)Cn2cc(C(=O)NCc3cccc(OC(F)(F)F)c3)nn2)c(=O)c1` (stereo not drawn) [Example 231, 1-(4-{4-[2-(1,1-dioxo-1$l^6,4-thiomorpholin-4-yl)acetamido]-2-oxo-1,2-dihydropyridin-1-yl}-2-fluorobutyl)-N-{[3-(trifluoromethoxy)phenyl]methyl}-1H-1,2,3-triazole-4-carboxamide]: in test [1], the IC50 is 100 to 500 nM. For the same compound, the EC50 in test [2] was > 5000 nM.
As for `N#Cc1ccc(CNC(=O)c2cn(CC(F)CCn3ccc(NC(=O)Cc4ccccc4)c(F)c3=O)nn2)cn1` (stereo not drawn) [Example 380, N-[(6-cyanopyridin-3-yl)methyl]-1-{2-fluoro-4-[3-fluoro-2-oxo-4-(2-phenylacetamido)-1,2-dihydropyridin-1-yl]butyl}-1H-1,2,3-triazole-4-carboxamide], the IC50 in test [1] fell in the range of 100 to 500 nM. The concentration for a half-maximal effect (EC50) in test [2] is 500 to 5000 nM.
As for `O=C(Cc1ccccc1)Nc1ccc(CCCCn2ccc(NC(=O)Cc3cccc(OC(F)(F)F)c3)nc2=O)nn1` [Example 99, N-{6-[4-(2-oxo-4-{2-[3-(trifluoromethoxy)phenyl]acetamido}-1,2-dihydropyrimidin-1-yl)butyl]pyridazin-3-yl}-2-phenylacetamide], in test [1], the IC50 was < 100 nM. The EC50 in test [2] was < 100 nM.
In the case of `O=C(Nc1ccn(CCC(F)Cn2cc(C(=O)NCc3cccc(OC(F)(F)F)c3)nn2)c(=O)n1)OC1CCC1` (stereo not drawn) [Example 385, cyclobutyl N-(1-{3-fluoro-4-[4-({[3-(trifluoromethoxy)phenyl]methyl}carbamoyl)-1H-1,2,3-triazol-1-yl]butyl}-2-oxo-1,2-dihydro-pyrimidin-4-yl)carbamate], the IC50 in test [1] was < 100 nM. In test [2], this compound returned an EC50 of 100 to 500 nM.
For the compound `O=C(Cc1cccc(OC(F)(F)F)c1)Nc1ccn(CCCCn2ccc(NC(=O)Cc3cccc(OC(F)(F)F)c3)nc2=O)c(=O)n1` [Example 91, N-{2-oxo-1-[4-(2-oxo-4-{2-[3-(trifluoromethoxy)phenyl]acetamido}-1,2-dihydropyrimidin-1-yl)butyl]-1,2-dihydropyrimidin-4-yl}-2-[3-(trifluoromethoxy)phenyl]acetamide], the IC50 in test [1] is < 100 nM. In addition, the EC50 in test [2] lay in the range of 100 to 500 nM.
